Data reported in patent US4051241A.
Like-named read-outs stand apart in the source and are kept apart here.

Legend:
[1] = Metabolic effects: loss of urinary nitrogen and calcium
Experimental: Four normal subjects were admitted to a hospital metabolic ward and maintained on a constant diet for days 1-3, the equilibration period.
On days 4-9, the control period, the subjects were also kept on the same constant diet and their urine was collected every 24 hours and assayed for nitrogen and calcium, determined fluorometrically using the method of Henry, R. J., Clinical Chemistry Principles and Techniques, 3rd Edition, p.
On days 10-15, the treatment period, the subjects were still kept on the same constant diet, and 20 mg. (three subjects, 1, 2 and 3) and 12.5 mg. (one subject, 4) of 6-chloro-11β,17α,21-trihydroxypregna-1,4-diene-3,20-dione were daily orally administered in a single dose. The urine of the subjects was collected every 24 hours and assayed for nitrogen and calcium.
After 8 weeks had elapsed, subjects 1 and 2 were readmitted to the hospital metabolic ward.

[2] = described in U.S. Pat. No. 3,232,965; cited from earlier work
[3] = human, in vivo
Experimental: The plasma of each volunteer was analyzed for organic solvent extractable radioactivity over a 24 hour period.

HPA axis [4] = conditions: in vivo
Experimental: 1. Fasting plasma cortisol level at 6 A.M. on each of days 1-14, according to the method of Murphy et al., J. Clin. Endocr.
3. […] The urine of each of the subjects was collected at 6 hour intervals during the entire 14 day period and analyzed for 17-ketogenic steroids for the METP test.

[5] = cited from earlier work
HPA axis [6] = conditions: oral, 6 A.M., 7 days
Experimental: (§1) Each of 39 normal human subjects was hospitalized on a clinical pharmacology ward for the entire time (14 days) while the procedures described herein were carried out.
(§2) The following tests were performed, except as otherwise indicated in Table II below, on each of the subjects:
On each of days 5-11 the various corticosteroids were orally administered, all subjects receiving their daily single dosage of corticosteroids at 6 A.M. Tabulated below, in Table II, are the numbers of subjects receiving a particular dosage per day of a particular corticosteroid. The dosage regimens chosen reflect the relative potencies of the corticosteroids tested.

HPA axis [7] = system: HPA axis
Experimental: as §1, §2
Metyrapone (METP) test, according to a modification of the method described by Liddle et al., J. Clin. Endocr. […] The urine of each of the subjects was collected at 6 hour intervals during the entire 14 day period and analyzed for 17-ketogenic steroids for the METP test.
On each of days 5-11 the various corticosteroids were orally administered, all subjects receiving their daily single dosage of corticosteroids at 6 A.M. Tabulated below, in Table II, are the numbers of subjects receiving a particular dosage per day of a particular corticosteroid.

C[C@]12C=CC(=O)C=C1C(Cl)=C[C@@H]1[C@@H]2[C@@H](O)C[C@@]2(C)[C@H]1CC[C@]2(O)C(=O)CO
loss of nitrogen and calcium, comparison of 6-chloro compound with prednisolone ([1]; in vivo): minimized
action [2]: cortisone like (anti-inflammatory) action
Plasma Half-Life [3]: 2 h
half-life, volunteer No. 1 [3]: approximately 110 minutes
half-life, volunteer No. 2 [3]: approximately 125 minutes
unwanted side-effects associated with HPA axis suppression (HPA axis [4]): not present

C[C@]12C=CC(=O)C=C1CC[C@H]1[C@@H]3C[C@@H](O)[C@](O)(C(=O)CO)[C@@]3(C)C[C@H](O)[C@@]12F [9α-Fluoro-16α-hydroxyprednisolone, 9α-fluoro-11β,16α,17α,21-tetrahydroxypregna-1,4-diene-3,20-dione]
Plasma Half-Life ([5]; in vivo): ≥ 3.33 h

C[C@]12C=CC(=O)C=C1CC[C@@H]1[C@@H]2[C@@H](O)C[C@@]2(C)[C@H]1CC[C@]2(O)C(=O)CO [Prednisolone]
Normal/Total A.M. Plasma Cortisol (HPA axis [6]; 5.0 mg per day): 3/3
Normal/Total A.M. Plasma Cortisol (HPA axis [6]; 10.0 mg per day): 3/3
Normal/Total METP Response (HPA axis [7]; 25.0 mg per day, oral, 6 A.M., 7 days): 3/3
Plasma Half-Life ([5]; Melby, Ann. Int. Med., 81:505-512, 1974): ≥ 3.33 h
loss of nitrogen and calcium, comparison of 6-chloro compound with prednisolone ([1]; equipotent doses, subjects 1 and 2): greater loss of both nitrogen and calcium

C[C@H]1C[C@H]2[C@@H]3CCC4=CC(=O)C=C[C@]4(C)[C@@]3(F)[C@@H](O)C[C@]2(C)[C@@]1(O)C(=O)CO [9α-Fluoro-16β-methylprednisolone]
subjects showing a normal metyrapone test (HPA axis [7]; in vivo): none
